We go through one compound from BindingDB's records for doi:10.1021/jm00159a032 (1986).

This test has as its target Thymidylate synthase (Streptococcus faecium). The experiment in a line: Inhibitory activity against thymidylate synthase of Streptococcus faecium.

For the compound `C#CN(Cc1ccc2nc(N)[nH]c(=O)c2c1)c1ccc(C(=O)NC(CCC(=O)NC(CCC(=O)NC(CCC(=O)O)C(=O)O)C(=O)O)C(=O)O)cc1` (stereo unspecified) [4-[4-(4-{4-[(2-Amino-4-hydroxy-quinazolin-6-ylmethyl)-ethynyl-amino]-benzoylamino}-4-carboxy-butyrylamino)-4-carboxy-butyrylamino]-4-carboxy-butyric acid anion], inhibition was half-maximal at 5.5 nM (IC50).
